Article PMC12018053 (Biochemistry and Biophysics Reports, 2025)
Values after ≈ are worked out from the molar mass of the structure shown.

Assays:
Rat sEH = target: T1, Rat sEH (Rattus norvegicus, UniProt P80299); test: sEH fluorescent-based inhibition assay; assay type: biochemical
T1 sequence (P80299 1-554): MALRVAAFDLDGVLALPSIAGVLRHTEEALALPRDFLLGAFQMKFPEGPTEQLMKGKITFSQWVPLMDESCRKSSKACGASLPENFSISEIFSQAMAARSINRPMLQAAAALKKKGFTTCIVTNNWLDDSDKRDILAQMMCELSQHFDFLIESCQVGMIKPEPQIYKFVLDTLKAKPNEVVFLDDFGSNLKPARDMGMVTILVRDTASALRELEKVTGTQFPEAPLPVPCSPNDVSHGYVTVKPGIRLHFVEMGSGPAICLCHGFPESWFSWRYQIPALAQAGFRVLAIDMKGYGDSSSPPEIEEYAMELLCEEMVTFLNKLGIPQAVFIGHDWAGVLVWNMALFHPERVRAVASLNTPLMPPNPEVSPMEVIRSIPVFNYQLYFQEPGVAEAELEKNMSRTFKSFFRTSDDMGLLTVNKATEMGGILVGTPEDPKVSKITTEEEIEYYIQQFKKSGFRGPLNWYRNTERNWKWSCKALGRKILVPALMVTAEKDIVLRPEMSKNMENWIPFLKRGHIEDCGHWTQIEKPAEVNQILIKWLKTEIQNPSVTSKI

Delta opioid (DOR) = Delta opioid (DOR) (Homo sapiens, UniProt P41143); test: NIMH PDSP primary binding screen, DOR; conditions: read-out: Inhibition (%) Delta opioid (DOR)
Sequence of Delta opioid (DOR) (P41143 whole entry): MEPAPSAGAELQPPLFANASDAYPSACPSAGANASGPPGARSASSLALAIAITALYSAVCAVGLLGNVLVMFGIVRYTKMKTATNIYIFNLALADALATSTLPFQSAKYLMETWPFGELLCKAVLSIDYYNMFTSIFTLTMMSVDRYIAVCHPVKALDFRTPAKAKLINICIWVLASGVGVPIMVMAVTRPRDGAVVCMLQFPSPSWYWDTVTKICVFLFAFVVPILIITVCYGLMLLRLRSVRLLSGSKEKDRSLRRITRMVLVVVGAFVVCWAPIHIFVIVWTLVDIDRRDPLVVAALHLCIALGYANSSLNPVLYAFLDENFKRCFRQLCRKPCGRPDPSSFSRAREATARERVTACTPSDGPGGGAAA

Mu opioid (MOR) = Mu opioid (MOR) (Homo sapiens, UniProt P35372); test: NIMH PDSP primary binding screen, MOR; conditions: read-out: Inhibition (%) Mu opioid (MOR)
Sequence of Mu opioid (MOR) (P35372 whole entry): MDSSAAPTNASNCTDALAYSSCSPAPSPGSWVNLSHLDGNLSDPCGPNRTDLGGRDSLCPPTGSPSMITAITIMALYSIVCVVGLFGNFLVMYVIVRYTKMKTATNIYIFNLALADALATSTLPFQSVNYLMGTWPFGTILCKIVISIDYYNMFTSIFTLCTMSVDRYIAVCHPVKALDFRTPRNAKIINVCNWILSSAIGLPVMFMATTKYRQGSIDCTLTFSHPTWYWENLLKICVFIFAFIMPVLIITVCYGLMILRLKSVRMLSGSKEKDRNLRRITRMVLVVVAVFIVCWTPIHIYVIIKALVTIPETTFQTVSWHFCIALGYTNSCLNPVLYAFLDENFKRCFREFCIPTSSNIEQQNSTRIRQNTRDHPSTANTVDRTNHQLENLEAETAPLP

[1] = Microsomal stability assay in human liver microsomes; assay type: in vitro ADME; conditions: pH 7.4
Human sEH = target: T2, Human sEH (Homo sapiens, UniProt P34913); test: sEH fluorescent-based inhibition assay; assay type: biochemical
T2 sequence (P34913 1-555): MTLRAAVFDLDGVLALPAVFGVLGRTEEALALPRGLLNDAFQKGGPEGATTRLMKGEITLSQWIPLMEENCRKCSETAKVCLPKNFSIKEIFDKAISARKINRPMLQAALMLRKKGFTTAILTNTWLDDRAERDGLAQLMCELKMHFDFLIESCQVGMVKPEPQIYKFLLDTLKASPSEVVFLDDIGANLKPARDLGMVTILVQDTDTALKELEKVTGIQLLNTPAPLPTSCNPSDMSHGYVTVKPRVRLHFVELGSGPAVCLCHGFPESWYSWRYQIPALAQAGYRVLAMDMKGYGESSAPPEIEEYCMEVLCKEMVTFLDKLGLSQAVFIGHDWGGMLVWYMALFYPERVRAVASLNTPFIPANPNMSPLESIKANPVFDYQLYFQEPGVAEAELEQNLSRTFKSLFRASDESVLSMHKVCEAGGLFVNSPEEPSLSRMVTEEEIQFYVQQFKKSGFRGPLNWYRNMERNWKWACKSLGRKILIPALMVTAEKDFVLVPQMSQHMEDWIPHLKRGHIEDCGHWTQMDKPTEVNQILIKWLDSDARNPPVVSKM

5-HT2C = target: T3, 5-HT2C (Homo sapiens, UniProt P28335); test: NIMH PDSP primary binding screen, 5-HT2C; conditions: read-out: Inhibition (%) 5-HT2C
T3 sequence (P28335 33-458): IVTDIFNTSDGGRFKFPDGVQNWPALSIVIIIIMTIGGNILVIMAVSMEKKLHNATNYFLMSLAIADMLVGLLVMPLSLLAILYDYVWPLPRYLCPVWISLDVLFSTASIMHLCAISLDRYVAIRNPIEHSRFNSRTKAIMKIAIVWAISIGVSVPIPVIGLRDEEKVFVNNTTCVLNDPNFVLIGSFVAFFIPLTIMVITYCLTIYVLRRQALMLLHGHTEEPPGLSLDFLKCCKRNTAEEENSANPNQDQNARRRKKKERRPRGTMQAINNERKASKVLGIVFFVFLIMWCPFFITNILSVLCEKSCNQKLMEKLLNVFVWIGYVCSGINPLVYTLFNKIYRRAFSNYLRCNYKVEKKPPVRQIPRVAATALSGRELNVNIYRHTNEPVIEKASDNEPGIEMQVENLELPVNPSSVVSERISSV

5-HT1D = 5-HT1D (Homo sapiens, UniProt P28221); test: NIMH PDSP primary binding screen, 5-HT1D; conditions: read-out: Inhibition (%) 5-HT1D
Sequence of 5-HT1D (P28221 whole entry, species assumed): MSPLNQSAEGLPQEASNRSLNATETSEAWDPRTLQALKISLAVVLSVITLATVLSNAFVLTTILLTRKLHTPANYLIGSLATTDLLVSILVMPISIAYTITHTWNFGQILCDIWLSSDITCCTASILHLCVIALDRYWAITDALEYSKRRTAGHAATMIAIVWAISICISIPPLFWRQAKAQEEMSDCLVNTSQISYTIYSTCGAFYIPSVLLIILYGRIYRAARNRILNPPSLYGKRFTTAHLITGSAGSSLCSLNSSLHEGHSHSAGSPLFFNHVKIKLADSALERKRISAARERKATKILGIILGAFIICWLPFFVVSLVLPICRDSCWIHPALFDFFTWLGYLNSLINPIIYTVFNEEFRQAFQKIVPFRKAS

Mouse sEH = target: T4, Mouse sEH (Mus musculus, UniProt P34914); test: sEH fluorescent-based inhibition assay; assay type: biochemical
T4 sequence (P34914 1-554): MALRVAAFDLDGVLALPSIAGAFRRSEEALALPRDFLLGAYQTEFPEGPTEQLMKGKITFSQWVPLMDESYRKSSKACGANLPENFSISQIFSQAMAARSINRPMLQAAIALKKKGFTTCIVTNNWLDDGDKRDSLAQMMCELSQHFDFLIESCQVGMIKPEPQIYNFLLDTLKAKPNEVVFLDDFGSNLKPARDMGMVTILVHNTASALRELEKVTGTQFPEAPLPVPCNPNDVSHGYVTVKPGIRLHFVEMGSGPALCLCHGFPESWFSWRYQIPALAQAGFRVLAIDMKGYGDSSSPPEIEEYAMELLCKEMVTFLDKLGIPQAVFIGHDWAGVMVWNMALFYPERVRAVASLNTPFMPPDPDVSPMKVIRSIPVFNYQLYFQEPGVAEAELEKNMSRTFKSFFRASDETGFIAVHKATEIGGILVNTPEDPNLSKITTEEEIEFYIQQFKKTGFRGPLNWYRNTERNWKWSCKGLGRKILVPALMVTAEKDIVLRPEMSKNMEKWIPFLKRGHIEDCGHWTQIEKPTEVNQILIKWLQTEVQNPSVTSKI

physchem = conditions: sodium phosphate buffer, 24 °C, pH 7.4, aqueous buffer, kinetic from dmso stock
[2] = Microsomal stability assay in rat liver microsomes; assay type: in vitro ADME; conditions: pH 7.4
5-HT1B = 5-HT1B (Homo sapiens, UniProt P28222); test: NIMH PDSP primary binding screen, 5-HT1B; conditions: read-out: Inhibition (%) 5-HT1B
Sequence of 5-HT1B (P28222 whole entry, species assumed): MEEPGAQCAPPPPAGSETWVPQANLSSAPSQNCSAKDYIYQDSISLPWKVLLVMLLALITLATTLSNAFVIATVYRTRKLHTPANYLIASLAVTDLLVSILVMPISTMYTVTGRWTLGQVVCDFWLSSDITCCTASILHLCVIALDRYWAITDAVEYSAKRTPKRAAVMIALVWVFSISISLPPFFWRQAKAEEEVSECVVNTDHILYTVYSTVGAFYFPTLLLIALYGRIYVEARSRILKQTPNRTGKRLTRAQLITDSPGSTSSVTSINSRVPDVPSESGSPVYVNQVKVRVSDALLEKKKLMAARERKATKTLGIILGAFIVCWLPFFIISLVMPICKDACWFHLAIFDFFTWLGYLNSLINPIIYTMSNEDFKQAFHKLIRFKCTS

[3] = tested on: female Sprague-Dawley rats; test: Orofacial formalin test without nitroglycerin; assay type: in vivo, rat; conditions: 3 mg/kg i.p. 30 min before formalin, no nitroglycerin pretreatment

## O=C(Nc1ccc(-c2ccc3ccncc3c2)cc1)C1CCN(S(=O)(=O)c2ccccc2Cl)CC1 [Compound 4f, 1-((2-chlorophenyl)sulfonyl)-N-(4-(isoquinolin-7-yl)phenyl)piperidine-4-carboxamide]
Rat sEH
  IC50: 1 nM
Delta opioid (DOR)
  inhibition at 10 µM: 3.1 ± 1.53%
Mu opioid (MOR)
  inhibition at 10 µM: 10.6 ± 4.75%
[1]
  half-life at 1 µM: 58 min
  microsomal CLint at 1 µM: 23.7 µL/min/mg
Human sEH
  IC50: 2.2 nM
5-HT2C
  inhibition at 10 µM: 21.5 ± 4.63%
5-HT1D
  inhibition at 10 µM: 40.9 ± 11.2%
Mouse sEH
  IC50: 107 nM
physchem
  solubility: 54.4 µM (≈ 27.5 µg/mL)
[2]
  half-life at 1 µM: 25.6 min
  microsomal CLint at 1 µM: 54 µL/min/mg
5-HT1B
  inhibition at 10 µM: 12.4 ± 2.29%
[3]
  Time spent rubbing the injected area vs vehicle: no significant difference
